Patent US20200131196A1 (Mount Tam Therapeutics, Inc., priority 2017, published 2020)
Like-named read-outs stand apart in the source and are kept apart here.

Tests used:
TORC2 = molecular target: T1, TORC2 (Homo sapiens, UniProt P42345+P62942); assay: TORC2 inhibition in PC3 cells (Western blot, phospho Akt (S473)); assay type: cell-based
T1 construct: endogenous in cells; host or cells: PC3 cells
Protocol: Equal amounts of protein were resolved by SDS-PAGE and transferred to nitrocellulose membrane using the Invitrogen Nu-Page system. […] The following day, blots were washed 3 times in TBST, incubated for 2 hr with secondary antibodies (donkey anti rabbit hrp conjugated), and finally washed an additional 3 times in TBST. ECL Prime (Amersham) was used to detect the proteins of interest and ImageJ was used to quantify blots.

[1] = Pharmacokinetics in male Sprague Dawley rats (intravenous and oral); assay type: in vivo, rat; conditions: for bioavailability: male, Sprague Dawley, po, 10 mg/kg; for AUC: read-out: AUC 0-infinity_observed
Protocol: Table 6 provides the pharmacokinetic parameters of Example (I) in male Sprague Dawley rats after a single bolus intravenous dose of 2 mg/kg. Table 7 provides the pharmacokinetic parameters of Example I in male Sprague Dawley rats after a single bolus oral dose of 10 mg/kg. In order to measure bioavailability in vivo, a compound may be administered to a test animal (e.g. mouse or rat) both intraperitoneally (i.p.) or intravenously (i.v.) and orally (p.o.) and blood samples are taken at regular intervals to examine how the plasma concentration of the drug varies over time. The time course of plasma concentration over time can be used to calculate the absolute bioavailability of the compound as a percentage using standard models. An example of a typical protocol is described below. […] The time-course of plasma or whole blood concentrations can then be used to derive key parameters such as the area under the plasma or blood concentration-time curve (AUC-which is directly proportional to the total amount of unchanged drug that reaches the systemic circulation), the maximum (peak) plasma or blood drug concentration, the time at which maximum plasma or blood drug concentration occurs (peak time), additional factors which are used in the accurate determination of bioavailability include: the compound's terminal half-life, total body clearance, steady-state volume of distribution and F %. These parameters are then analyzed by non-compartmental or compartmental methods to give a calculated percentage bioavailability, for an example of this type of method see Gallant-[…] et al, 2000 and […] et al, 1998, and references therein.

[2] = male Sprague Dawley rats, single bolus intravenous dose of 2 mg/kg
[3] = male Sprague Dawley rats, single bolus oral dose of 10 mg/kg
[4] = rat, blood, male Sprague Dawley rats, single bolus intravenous dose of 2 mg/kg
[5] = rat, blood, male Sprague Dawley rats, single bolus oral dose of 10 mg/kg

T1 sequence (P62942 2-108 limits assumed, other chains not shown): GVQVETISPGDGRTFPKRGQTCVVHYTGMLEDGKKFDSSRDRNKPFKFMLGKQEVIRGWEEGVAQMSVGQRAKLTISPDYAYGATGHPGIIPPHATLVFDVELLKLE

CO[C@H]1C[C@@H]2CC[C@@H](C)[C@@](O)(O2)C(=O)C(=O)N2CCCC[C@H]2C(=O)O[C@H]([C@H](C)C[C@H]2C[C@H]3C[C@@H]2C[C@@H]3O)CC(=O)[C@H](C)/C=C(\C)[C@@H](O)[C@@H](OC)C(=O)[C@H](C)C[C@H](C)/C=C/C=C/C=C/1C [Formula II, C37-[(1R,2S,4R,5S)-5-hyhroxybicyclo[2.2.1]heptane] rapamycin]
IC50 (TORC2): 5 nM
AUMC 0-inf_observed [1, 2]: 2358 ng/ml*h^2
Cl_obs [1, 2]: 0.0026 (mg/kg)/(ng/ml)/h
Lambda_z [1, 2]: 0.270 h⁻¹
Vss_obs [1, 2]: 0.00797 (mg/kg)/(ng/ml)
Vz_obs [1, 2]: 0.00963 (mg/kg)/(ng/ml)
AUMC 0-inf_obs [1, 3]: 13410 ng/ml*h^2
Cl/F_obs [1, 3]: 0.0055 (mg/kg)/(ng/ml)/h
Lambda_z [1, 3]: 0.127 h⁻¹
Tlag [1, 3]: 0 h
Vz/F_obs [1, 3]: 0.0433 (mg/kg)/(ng/ml)
bioavailability ([1]; rat, blood, male Sprague Dawley rats, single bolus oral dose of 10 mg/kg, read-out: % F): 47%
bioavailability ([1]; rat, blood, read-out: oral bioavailability): ~47%
AUC(0-t) [1, 4]: 694 ng·h/mL
C0 [1, 4]: 1560 ng/mL
half-life [1, 4]: 2.57 h
AUC [1, 4]: 769 ng·h/mL
Cmax ([1]; rat, blood, male Sprague Dawley rats, single bolus intravenous dose of 2 mg/kg, read-out: Cmax (maximum blood concentration)): 912 ng/mL
MRT ([1]; rat, blood, male Sprague Dawley rats, single bolus intravenous dose of 2 mg/kg, read-out: MRT 0-infinity_observed): 3.06 h
Tmax ([1]; rat, blood, male Sprague Dawley rats, single bolus intravenous dose of 2 mg/kg, read-out: Tmax (time maximum blood conc.)): 0.0333 h
AUC(0-t) [1, 5]: 1720 ng·h/mL
half-life [1, 5]: 5.46 h
AUC [1, 5]: 1820 ng·h/mL
Cmax ([1]; rat, blood, male Sprague Dawley rats, single bolus oral dose of 10 mg/kg, read-out: Cmax): 206 ng/mL
MRT inf ([1]; rat, blood, male Sprague Dawley rats, single bolus oral dose of 10 mg/kg, read-out: MRT 0-inf_obs): 7.37 h
Tmax ([1]; rat, blood, male Sprague Dawley rats, single bolus oral dose of 10 mg/kg, read-out: Tmax): 2 h
